The record followed here is the NIST ThermoML archive (doi:10.1016/j.jct.2011.07.011).

Molecules are shown by their SMILES. “And” between values parts separate entries of the source, which are not always exact repeats. Equal values may be shown once. Numbers after ± are expanded uncertainties.

For this series the following is noted: Crystal; Heating/Cooling curves.

For `[Ne]` [neon], the Triple point temperature is 24.54 ± 0.077 K and 24.69 ± 0.077 K.
